Here are results for 20 molecules from PubChem BioAssay (NCI).

Some test systems named below: DU-145 prostate; HS 578T breast; NCI/ADR-RES ovarian; MDA-N.
Assay in all cases: NCI tumour cell line growth inhibition, 48 h

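Values below derive from 48-hour exposures of cells grown in 96-well plates, with endpoints linearly interpolated between the two concentrations bracketing the appropriate inhibition level. GI50 marks 50% less growth. TGI denotes the concentration required for complete inhibition of growth.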

With `C#Cc1cccc(Nc2nc(C)nc3cc(NC(=O)CCl)ccc23)c1`, the values for the GI50 with DU-145 prostate, in the assay on HS 578T breast and with NCI/ADR-RES ovarian were 3.67 µM, 2.8 µM and 3.42 µM, respectively. Moreover, the TGI with DU-145 prostate turned out to be 7.08 µM; in the assay on HS 578T breast, 10.2 µM; in the assay on NCI/ADR-RES ovarian it was 12.5 µM.
On to `C=C[C@@H]1CCC/C=C/[C@@H]2C[C@H](O)C[C@H]2[C@H](O)/C=C/C(=O)O1`, for which the GI50 is 3.82 µM in the assay with DU-145 prostate, 0.477 µM with HS 578T breast and 0.365 µM with NCI/ADR-RES ovarian. In addition, the TGI in the assay on DU-145 prostate is above 100 µM; in the assay on HS 578T breast, above 100 µM; in the assay on NCI/ADR-RES ovarian, 11.6 µM.
Take `CCCCNC(=O)Oc1ccc(/C(=C(\C)c2ccc(OC)cc2)c2ccc(OCCN3CCCCC3)cc2)cc1`: the GI50 in the assay with DU-145 prostate was 6.5 µM; with HS 578T breast, 2.14 µM; in the assay on NCI/ADR-RES ovarian, 3.67 µM. The TGI is 21.4 µM with DU-145 prostate, 4.82 µM in the assay with HS 578T breast and 19.3 µM in the assay on NCI/ADR-RES ovarian.
For `[Mn+3].[O-][Cl+3]([O-])([O-])O.[O-]c1ccccc1C=NCCN1CC1.[O-]c1ccccc1C=NCCN1CC1`, the GI50 was 22.7 µM in the assay on DU-145 prostate, 33.6 µM in the assay with HS 578T breast and 19.3 µM in the assay with NCI/ADR-RES ovarian. For the same molecule, the TGI in the assay on DU-145 prostate was above 100 µM; in the assay on HS 578T breast, above 100 µM; in the assay with NCI/ADR-RES ovarian, 49.8 µM.
Turning to `O=c1cc(-c2ccccc2)oc2c(O)c(O)ccc12`, the values for the GI50 in the assay with DU-145 prostate, with HS 578T breast and with NCI/ADR-RES ovarian were 8.66 µM, 37.2 µM and 4.04 µM, respectively. In addition, the TGI in the assay on DU-145 prostate was above 100 µM; in the assay with HS 578T breast, above 100 µM; with NCI/ADR-RES ovarian, 67.5 µM.
As to `C=C(C)[C@@H]1C/C=C(/COC(C)=O)CC[C@H]2O[C@@]2(C)CC/C=C(\C)CC1`, the GI50 in the assay on DU-145 prostate, with HS 578T breast and in the assay with NCI/ADR-RES ovarian was above 100 µM each time. Also, the TGI with DU-145 prostate, with HS 578T breast and in the assay on NCI/ADR-RES ovarian was above 100 µM throughout.
For `O=C1/C(=C/c2ccc(Cl)cc2)N=C(c2ccccc2)N1c1cc(C(F)(F)F)ccc1Cl`, the GI50 in the assay on DU-145 prostate is 31.2 µM; in the assay with HS 578T breast, 21.4 µM; in the assay on NCI/ADR-RES ovarian, 22.3 µM. Moreover, the values for the TGI in the assay with DU-145 prostate, in the assay with HS 578T breast and with NCI/ADR-RES ovarian were above 100 µM, 66.5 µM and 77.6 µM, respectively.
As to `COc1ccc(-c2oc3ncnc(N)c3c2-c2ccc(NC(=O)Nc3cc(C(F)(F)F)ccc3F)cc2)cc1`, the GI50 is 1.14 µM in the assay on DU-145 prostate, 0.833 µM in the assay on HS 578T breast and 1.17 µM with NCI/ADR-RES ovarian. Moreover, the TGI came out at 4.16 µM with DU-145 prostate, 4.67 µM in the assay with HS 578T breast and 6.24 µM with NCI/ADR-RES ovarian.
Consider `COc1ccc(-c2c(NC(=O)Nc3ccc(Cl)c(C(F)(F)F)c3)cnn2-c2ccc(S(N)(=O)=O)cc2)cc1`, for which the GI50 in the assay with DU-145 prostate was 3.46 µM; in the assay with HS 578T breast, 3.41 µM; in the assay on NCI/ADR-RES ovarian, 24.7 µM. Besides, the TGI is 12.1 µM in the assay on DU-145 prostate, 16.9 µM in the assay on HS 578T breast and above 100 µM with NCI/ADR-RES ovarian.
Take `COc1ccc(NC(=O)c2ccc(C(F)(F)F)nc2Nc2ccc(Cl)cc2C)cc1Cl`: the GI50 was 3.75 µM in the assay on DU-145 prostate, 6.9 µM with HS 578T breast and 3.17 µM with NCI/ADR-RES ovarian. Also, the TGI in the assay with DU-145 prostate came to 14.2 µM; with HS 578T breast it was 28.3 µM; with NCI/ADR-RES ovarian it was 14.9 µM.
Turning to `O=C1NN(C(=O)c2ccccc2)C(c2ccc(Cl)c(Cl)c2)=C/C1=C\c1ccccc1[N+](=O)[O-]`, the GI50 with DU-145 prostate was 2.78 µM; with HS 578T breast, 2.46 µM; in the assay with NCI/ADR-RES ovarian, 2.29 µM. Moreover, the TGI in the assay with DU-145 prostate, with HS 578T breast and in the assay on NCI/ADR-RES ovarian was above 6.75 µM throughout.
Turning to `CC(C)(C)c1cc[n+](C[n+]2ccc(C(C)(C)C)cc2)cc1`, the TGI in the assay with DU-145 prostate, with HS 578T breast, in the assay on MDA-N and in the assay on NCI/ADR-RES ovarian was above 100 µM each time.
As to `Oc1cccc2ccc(SSc3ccc4cccc(O)c4n3)nc12`, the TGI was above 100 µM with DU-145 prostate, above 100 µM in the assay on HS 578T breast, 38.6 µM in the assay on MDA-N and 65.6 µM with NCI/ADR-RES ovarian.
As for `O=c1cccccc1O`, the TGI in the assay with DU-145 prostate, with HS 578T breast, with MDA-N and in the assay on NCI/ADR-RES ovarian was above 100 µM in each case.
Consider `COC(=O)[C@@H](C)C[C@H](Cc1ccc(F)cc1)NC(=O)c1csc([C@@H](C[C@H](C(C)C)N(C)C(=O)[C@@H](NC(=O)[C@H]2CCCCN2C)C2CC2)OC(C)=O)n1`, for which the GI50 in the assay with DU-145 prostate was 0.238 µM; with HS 578T breast, 0.307 µM; in the assay on NCI/ADR-RES ovarian, 6.88 µM. The TGI in the assay on DU-145 prostate was above 9.05 µM; in the assay on HS 578T breast it was above 7.76 µM; in the assay on NCI/ADR-RES ovarian, above 25 µM.
In the case of `COc1cc(/C=C/C(=O)c2ccccc2O)ccc1OCCCOc1cc2c(cc1OC)C(=O)N1CCC[C@H]1C=N2`, the values for the GI50 in the assay on DU-145 prostate, in the assay on HS 578T breast and in the assay with NCI/ADR-RES ovarian were 0.0351 µM, 0.054 µM and 0.345 µM, respectively. Also, the TGI in the assay with DU-145 prostate came to 0.452 µM; in the assay on HS 578T breast, 0.284 µM; in the assay with NCI/ADR-RES ovarian it was 16.8 µM.
Turning to `O=C(N/N=C/c1ccc([N+](=O)[O-])cc1)c1ccccc1Nc1ccnc(C(F)(F)F)c1`, the GI50 in the assay with DU-145 prostate was 11.9 µM; in the assay with HS 578T breast it was 2.26 µM; in the assay with NCI/ADR-RES ovarian, 16.8 µM. Further, the values for the TGI in the assay on DU-145 prostate, with HS 578T breast and in the assay on NCI/ADR-RES ovarian were 45.5 µM, 49.8 µM and 58.7 µM, respectively.
In the case of `COc1cccc(C2SC(C)C(=O)N2NC(=O)C(O)c2ccccc2)c1` (configuration not stated), in the assay with DU-145 prostate, the GI50 is above 100 µM and the TGI is above 100 µM. In the assay with HS 578T breast, the GI50 was above 100 µM and the TGI was above 100 µM.
In the case of `N#Cc1ccc2[nH]cc(Cc3c[nH]c4ccc(C#N)cc34)c2c1`, the GI50 is 16.3 µM in the assay with DU-145 prostate, 11.4 µM in the assay with HS 578T breast and 12.5 µM in the assay with NCI/ADR-RES ovarian. Further, the TGI in the assay with DU-145 prostate was above 50 µM; in the assay on HS 578T breast, 25.7 µM; in the assay with NCI/ADR-RES ovarian it was 36.3 µM.
Consider `COc1ccc(OC)c(-c2cc(-c3ccc(Cl)cc3)nn2-c2ccccc2)c1`, for which the GI50 in the assay with DU-145 prostate is 96.7 µM; in the assay with HS 578T breast, 18.5 µM; in the assay with NCI/ADR-RES ovarian it was 15.8 µM. The TGI is above 100 µM in the assay on DU-145 prostate, above 100 µM with HS 578T breast and 60.9 µM in the assay with NCI/ADR-RES ovarian.
